From patent US20260335323A1, “CHIMERIC MOLECULE” (UCL Business Ltd, priority 2023, published 2026)

How the values were obtained:
[1] = target: T1, BRD4 (Homo sapiens, UniProt O60885); assay: Western blot, BRD4 levels in CAL51 cells; format: cell-based; details: 100 nM, 72 hours
T1 construct: Western blot (antibody CST #13440)
Procedure: (§1) All treatments with (+)-JQ1, NZ-147 or NZ-175 were performed at 100 nM concentration over 72 hours.
(§2) Cells were homogenised in protein lysis buffer consisting of 0.1 M Tris pH 8.0, 0.1 M NaCl, 5% glycerol, IGEPAL® CA-630 (#18896. Sigma-Aldrich) and 5 mM EDTA, 0.1 M N-ethyl maleimide (ThermoFisher, #23030) and protease inhibitor (Cell Signalling Technologies, #5871). Protein concentrations were determined using the BCA assay to ensure equal loading. […] The membranes were immunoblotted with primary antibodies, overnight at 4° C. […]
(§3) Membranes were then incubated with horseradish peroxidase (HRP)-conjugated secondary antibodies (Rabbit #7074 and Mouse #7076) purchased from Cell Signalling Technologies for 1 hour and the HRP signal was detected using EZ-ECL Enhanced Chemiluminescence Detection Kit for HRP (#20-500-500, Sartorius), and imaged with an Alliance Q9 Advanced (UVITec). […]
(§4) We generated a BRD4-ULKTAC (NZ-147) by conjugating (+)-JQ1 (BRD4-targeting moiety) to NZ-60 via a PEG linker (FIG. 8A). CAL51 cells (a triple negative breast cancer cell line) were treated with DMSO, (+)-JQ1 or NZ-147 at 100 nM for 72 hours then lysed and analysed by Western blot (FIG. 8B). […]

[2] = system: c-MYC; assay: c-MYC immunofluorescence in hTERT-cMYC-ER expressing RPE1 cells; format: cell-based, human; details: 100 nM, 72 hours, with 4-OHT
Procedure: FIG. 9. (A) Schematic representation of hTERT-cMYC-ER expressing RPE1 cells. Treatment with 4-hydroxytamoxifen (4-OHT) translocates c-MYC-ER from the cytoplasm into the nucleus, simulating oncogenic c-MYC. (B) Immunofluorescence images of hTERT-cMYC-ER expressing RPE1 cells treated with DMSO, (+)-JQ1 or NZ-147 at 100 nM for 72 hours, each with or without 4-OHT.
RPE1-hTERT-c-MYC-ER cells were seeded in a 384 well PerkinElmer CellCarrier Ultra plate. In Example 8, cells were treated for 72 hours with DMSO, (+)-JQ1±4-OHT, or, NZ-147±4-OHT. In Example 9, cells were treated for 72 hours with 4-OHT, NZ-175, both, or neither. Thereafter, in both Examples 8 and 9, cells were fixed with 4% paraformaldehyde (PFA) in phosphate buffered saline (PBS) and blocked with 10% FBS and 0.1% Triton in PBS. Plates were incubated at 4° C. overnight, with 1:500 rabbit anti-c-MYC (D84C12) rabbit monoclonal antibody (#5605, Cell Signalling Technologies). The following day, plates were incubated with 1:1000 goat anti-rabbit Alexa 488 (ThermoFisher Scientific, #A-11008) and 1.62 μM Hoechst 33342 at room temperature for 1 hour before imaging. Excitation and emission spectra for each channel are as follows: Hoechst 33342=405/435-480 nm, Alexa 488=488/500-550 nm. Images were acquired at 40× and 63× magnification with water immersion lens.

[3] = system: c-MYC; assay: Western blot, c-MYC levels in CAL51 cells; format: cell-based, human; details: 100 nM, 72 hours
Procedure: as §1, §2, §3, §4

[4] = system: c-MYC controlled genes; assay: RT-qPCR of c-MYC controlled genes in CAL51 cells; format: cell-based, human; details: 100 nM, 72 hours, vs (+)-JQ1 at equivalent concentration and duration
Procedure: FIG. 11. RT-qPCR quantification of expression of c-MYC controlled genes in CAL51 triple negative breast cancer cell line treated with DMSO, 100 nM (+)-JQ1 or 100 nM NZ-147 for 72 hours. […] MDM2 (A) and CCNE (B) are controlled by cMYC in oncogenic settings, PAICS (C) is a putative target of c-MYC, and eIF4E (D) is a known target of cMYC. n=3, *p<0.05, ** p<0.01, *** p<0.001.
RNA was extracted with the Qiagen RNeasy Mini kit following manufacturers protocol. RT-qPCR SYBR assay was carried out with Mesa Blue following manufacturers instructions, 80 ng RNA per well, experimental triplicates, BioRad CTX Connect qPCR machine. RNA levels were normalized to GAPDH. Experiments were done in biological triplicate. The primers used were as follows:
The levels of c-MYC controlled genes (determined using RT-qPCR) in CAL51 triple negative breast cancer cell line after treatment with DMSO, 100 nM (+)-JQ1 or 100 nM NZ-147 for 72 hours is shown in FIG. 11. In particular MDM2 (FIG. 11A) and CCNE (FIG. 11B) are controlled by cMYC in oncogenic settings, PAICS (FIG. 11C) is a putative target of c-MYC, and elF4E (FIG. 11D) is a known target of c-MYC.

levels of BRD4 [1]: reduced
Compound: Cc1sc2c(c1C)C(c1ccc(Cl)cc1)=N[C@@H](CC(=O)NCCOCCOCCOCCn1cc(COc3ccc([C@@H](NC(=O)Nc4cc(C(F)(F)F)cc(C(F)(F)F)c4)C(=O)Nc4ccc(F)cc4F)cc3)nn1)c1nnc(C)n1-2 [NZ-147, (R)-2-(3-(3,5-bis(trifluoromethyl)phenyl)ureido)-2-(4-((1-(1-((S)-4-(4-chlorophenyl)-2,3,9-trimethyl-6H-thieno[3,2-f][1,2,4]triazolo[4,3-a][1,4]diazepin-6-yl)-2-oxo-6,9, 12-trioxa-3-azatetradecan-14-yl)-1H-1,2,3-triazol-4-yl)methoxy)phenyl)-N-(2,4-difluorophenyl) acetamide]
nuclear c-MYC [2]: may show reduced nuclear c-MYC
levels of c-MYC [3]: reduced
impact on c-MYC controlled genes vs (+)-JQ1 [4]: significantly more profound impact
